Test results: patent publication US9604933B2, “Pyrazolochalcones as potential anticancer agents” (COUNCIL OF SCIENTIFIC AND INDUSTRIAL RESEARCH, priority 2013, dated 2017)

What was measured:
HL-60(TB) = experiment: NCI SRB cytotoxicity, leukemia HL-60(TB); assay type: cell-based; conditions: Homo sapiens, 48 h exposure
Method: (§1) The pyrazolochalcones (7e, 8e, 10e, 11e, 12e, 13e and 8f) have been tested against fifty nine human tumor cell lines derived from nine cancer types (leukemia, non-small cell lung cancer, colon cancer, CNS cancer, melanoma, ovarian cancer, renal cancer, prostate cancer and breast cancer) as per the NCI protocol. For each compound, dose response curves for individual cell lines have been measured at a minimum of five concentrations at 10 fold dilutions. A protocol of 48 h continuous drug exposure has been used, and a sulforhodamine B (SRB) protein assay has been used to estimate cell viability or growth. The concentration for 50% cell growth inhibition (GI50), 50% cell death (LC50, 50% growth) and total cell growth inhibition (TGI, 0% growth) values were tabulated (Table-1). DMSO was used as control to calculate the values of GI50, LC50 and TGI. The compounds 7e, 8e, 10e, 11e, 12e, 13e and 8f has been evaluated for their in vitro cytotoxicity in […] cell lines from nine human cancer types of leukemia (K-562, SR), non-small cell lung (Hop-62, NCI-H226, NCI-H522), colon (HCT-116, HCT-15, HCC-2998), CNS (SF-539), melanoma (SK-MEL-5, UACC-62, M14), ovarian (IGROV1), renal (A498), prostate (PC3) and breast (BT-549, MDA-MB-435, HS578T) origin. The results are expressed as percent of cell growth determined relative to that of untreated control cells (Table 2).

Prostate = experiment: NCI SRB cytotoxicity, prostate panel average; assay type: cell-based, human; conditions: average of cell lines; for GI50 / CC50: Homo sapiens; for GI50: read-out: Log10 GI50 (concentration in mol/L causing 50% growth inhibition) (converted); for CC50: read-out: Log10 LC50 (concentration in mol/L causing 50% cell death) (converted)
Method: as §1
(§2) Each cancer type represents the average of six to eight different cancer cell lines.

A549/ATCC = experiment: NCI SRB cytotoxicity, non-small cell lung A549/ATCC; assay type: cell-based; conditions: Homo sapiens, 48 h exposure
Method: as §1

ACHN = experiment: NCI SRB cytotoxicity, renal ACHN; assay type: cell-based; conditions: Homo sapiens, 48 h exposure
Method: as §1

SR = experiment: NCI SRB cytotoxicity, leukemia SR; assay type: cell-based; conditions: Homo sapiens, 48 h exposure
Method: as §1

M14 = experiment: NCI SRB cytotoxicity, melanoma M14; assay type: cell-based; conditions: Homo sapiens, 48 h exposure
Method: as §1

OVCAR-5 = experiment: NCI SRB cytotoxicity, ovarian OVCAR-5; assay type: cell-based; conditions: Homo sapiens, 48 h exposure
Method: as §1

BT-549 = experiment: NCI SRB cytotoxicity, breast BT-549; assay type: cell-based; conditions: Homo sapiens, 48 h exposure
Method: as §1

SK-OV-3 = experiment: NCI SRB cytotoxicity, ovarian SK-OV-3; assay type: cell-based; conditions: Homo sapiens, 48 h exposure
Method: as §1

CCRF-CEM = experiment: NCI SRB cytotoxicity, leukemia CCRF-CEM; assay type: cell-based; conditions: Homo sapiens, 48 h exposure
Method: as §1

MDA-MB-231/ATCC = experiment: NCI SRB cytotoxicity, breast MDA-MB-231/ATCC; assay type: cell-based; conditions: Homo sapiens, 48 h exposure
Method: as §1

Breast = experiment: NCI SRB cytotoxicity, breast panel average; assay type: cell-based, human; conditions: average of cell lines; for GI50 / CC50: Homo sapiens; for GI50: read-out: Log10 GI50 (concentration in mol/L causing 50% growth inhibition) (converted); for CC50: read-out: Log10 LC50 (concentration in mol/L causing 50% cell death) (converted)
Method: as §1, §2

Leukemia = experiment: NCI SRB cytotoxicity, leukemia panel average; assay type: cell-based, human; conditions: average of cell lines; for GI50 / CC50: Homo sapiens; for GI50: read-out: Log10 GI50 (concentration in mol/L causing 50% growth inhibition) (converted); for CC50: read-out: Log10 LC50 (concentration in mol/L causing 50% cell death) (converted)
Method: as §1, §2

Ovarian = experiment: NCI SRB cytotoxicity, ovarian panel average; assay type: cell-based, human; conditions: average of cell lines; for GI50 / CC50: Homo sapiens; for GI50: read-out: Log10 GI50 (concentration in mol/L causing 50% growth inhibition) (converted); for CC50: read-out: Log10 LC50 (concentration in mol/L causing 50% cell death) (converted)
Method: as §1, §2

SK-MEL-28 = experiment: NCI SRB cytotoxicity, melanoma SK-MEL-28; assay type: cell-based; conditions: Homo sapiens, 48 h exposure
Method: as §1

MCF7 = experiment: NCI SRB cytotoxicity, breast MCF7; assay type: cell-based; conditions: Homo sapiens, 48 h exposure
Method: as §1

TK-10 = experiment: NCI SRB cytotoxicity, renal TK-10; assay type: cell-based; conditions: Homo sapiens, 48 h exposure
Method: as §1

786-0 = experiment: NCI SRB cytotoxicity, renal 786-0; assay type: cell-based; conditions: Homo sapiens, 48 h exposure
Method: as §1

MOLT-4 = experiment: NCI SRB cytotoxicity, leukemia MOLT-4; assay type: cell-based; conditions: Homo sapiens, 48 h exposure
Method: as §1

NCI-H23 = experiment: NCI SRB cytotoxicity, non-small cell lung NCI-H23; assay type: cell-based; conditions: Homo sapiens, 48 h exposure
Method: as §1

NCI-H226 = experiment: NCI SRB cytotoxicity, non-small cell lung NCI-H226; assay type: cell-based; conditions: Homo sapiens, 48 h exposure
Method: as §1

UACC-257 = experiment: NCI SRB cytotoxicity, melanoma UACC-257; assay type: cell-based; conditions: Homo sapiens, 48 h exposure
Method: as §1

T-47D = experiment: NCI SRB cytotoxicity, breast T-47D; assay type: cell-based; conditions: Homo sapiens, T47D, 48 h exposure
Method: as §1

SNB-75 = experiment: NCI SRB cytotoxicity, CNS SNB-75; assay type: cell-based; conditions: Homo sapiens, 48 h exposure
Method: as §1

CAKI-1 = experiment: NCI SRB cytotoxicity, renal CAKI-1; assay type: cell-based; conditions: Homo sapiens, 48 h exposure
Method: as §1

HS 578T = experiment: NCI SRB cytotoxicity, breast HS 578T; assay type: cell-based; conditions: Homo sapiens, 48 h exposure
Method: as §1

PC-3 = experiment: NCI SRB cytotoxicity, prostate PC-3; assay type: cell-based; conditions: Homo sapiens, 48 h exposure
Method: as §1

SK-MEL-5 = experiment: NCI SRB cytotoxicity, melanoma SK-MEL-5; assay type: cell-based; conditions: Homo sapiens, 48 h exposure
Method: as §1

HCT-15 = experiment: NCI SRB cytotoxicity, colon HCT-15; assay type: cell-based; conditions: Homo sapiens, 48 h exposure
Method: as §1

A498 = experiment: NCI SRB cytotoxicity, renal A498; assay type: cell-based; conditions: Homo sapiens, 48 h exposure
Method: as §1

MDA-MB-435 = experiment: NCI SRB cytotoxicity, breast panel MDA-MB-435; assay type: cell-based; conditions: Homo sapiens, 48 h exposure
Method: as §1

SF-268 = experiment: NCI SRB cytotoxicity, CNS SF-268; assay type: cell-based; conditions: Homo sapiens, 48 h exposure
Method: as §1

OVCAR-3 = experiment: NCI SRB cytotoxicity, ovarian OVCAR-3; assay type: cell-based; conditions: Homo sapiens, 48 h exposure
Method: as §1

HCC-2998 = experiment: NCI SRB cytotoxicity, colon HCC-2998; assay type: cell-based; conditions: Homo sapiens, 48 h exposure
Method: as §1

COLO-205 = experiment: NCI SRB cytotoxicity, colon COLO-205; assay type: cell-based; conditions: Homo sapiens, 48 h exposure
Method: as §1

SW-620 = experiment: NCI SRB cytotoxicity, colon SW-620; assay type: cell-based; conditions: Homo sapiens, 48 h exposure
Method: as §1

NCI-H460 = experiment: NCI SRB cytotoxicity, non-small cell lung NCI-H460; assay type: cell-based; conditions: Homo sapiens, 48 h exposure
Method: as §1

RXF 393 = experiment: NCI SRB cytotoxicity, renal RXF 393; assay type: cell-based; conditions: Homo sapiens, 48 h exposure
Method: as §1

NCI-H522 = experiment: NCI SRB cytotoxicity, non-small cell lung NCI-H522; assay type: cell-based; conditions: Homo sapiens, 48 h exposure
Method: as §1

Renal = experiment: NCI SRB cytotoxicity, renal panel average; assay type: cell-based, human; conditions: average of cell lines; for GI50 / CC50: Homo sapiens; for GI50: read-out: Log10 GI50 (concentration in mol/L causing 50% growth inhibition) (converted); for CC50: read-out: Log10 LC50 (concentration in mol/L causing 50% cell death) (converted)
Method: as §1, §2

## COc1cc(C(=O)/C=C/c2cc(-c3cc(OC)c(OC)c(OC)c3)n[nH]2)cc(OC)c1OC [10e, (E)-1-(3,4,5-trimethoxyphenyl)-3-(3-(3,4,5-trimethoxyphenyl)-1H-pyrazol-5-yl)prop-2-en-1-one]
HL-60(TB)
  GI50: 1930 nM
Prostate
  GI50: 1480 nM
  CC50: 7410 nM
  Log10 TGI (concentration in mol/L causing total growth inhibition (0% growth)): −5.48 mol/L
A549/ATCC
  GI50: 2720 nM
ACHN
  GI50: 1620 nM
SR
  GI50: 390 nM
M14
  GI50: 1790 nM
OVCAR-5
  GI50: 1640 nM
BT-549
  GI50: 1570 nM
SK-OV-3
  GI50: 3200 nM
CCRF-CEM
  GI50: 1680 nM
MDA-MB-231/ATCC
  GI50: 1520 nM
Breast
  GI50: 1350 nM
  CC50: 10000 nM
  Log10 TGI (concentration in mol/L causing total growth inhibition (0% growth)): −5.35 mol/L
Leukemia
  GI50: 1200 nM
  CC50: 100000 nM
  Log10 TGI (concentration in mol/L causing total growth inhibition (0% growth)): −4.80 mol/L
Ovarian
  GI50: 2190 nM
  CC50: 14500 nM
  Log10 TGI (concentration in mol/L causing total growth inhibition (0% growth)): −5.23 mol/L
SK-MEL-28
  GI50: 1820 nM
MCF7
  GI50: 640 nM
TK-10
  GI50: 1460 nM
786-0
  GI50: 1560 nM
MOLT-4
  GI50: 2320 nM
NCI-H23
  GI50: 3040 nM
NCI-H226
  GI50: 1600 nM
UACC-257
  GI50: 1570 nM
T-47D
  GI50: 1130 nM
SNB-75
  GI50: 1540 nM
CAKI-1
  GI50: 2580 nM
HS 578T
  GI50: 2680 nM
PC-3
  GI50: 1470 nM
SK-MEL-5
  GI50: 1570 nM
HCT-15
  GI50: 1500 nM
A498
  GI50: 1610 nM
MDA-MB-435
  GI50: 1150 nM
SF-268
  GI50: 1940 nM
OVCAR-3
  GI50: 1750 nM
HCC-2998
  GI50: 1830 nM
COLO-205
  GI50: 1750 nM
SW-620
  GI50: 1590 nM
NCI-H460
  GI50: 1890 nM
RXF 393
  GI50: 1260 nM
NCI-H522
  GI50: 520 nM
Renal
  GI50: 1580 nM
  CC50: 7590 nM
  Log10 TGI (concentration in mol/L causing total growth inhibition (0% growth)): −5.45 mol/L

## COc1ccc(C(=O)/C=C/c2cc(-c3cc(OC)c(OC)c(OC)c3)n[nH]2)cc1OC [8e, (E)-1-(3,4-dimethoxyphenyl)-3-(3-(3,4,5-trimethoxyphenyl)-1H-pyrazol-5-yl)prop-2-en-1-one]
HL-60(TB)
  GI50: 1440 nM
Prostate
  GI50: 871 nM
  CC50: 5250 nM
  Log10 TGI (concentration in mol/L causing total growth inhibition (0% growth)): −5.64 mol/L
A549/ATCC
  GI50: 1860 nM
ACHN
  GI50: 1660 nM
SR
  GI50: 270 nM
M14
  GI50: 1840 nM
OVCAR-5
  GI50: 1590 nM
BT-549
  GI50: 1440 nM
SK-OV-3
  GI50: 2790 nM
CCRF-CEM
  GI50: 620 nM
MDA-MB-231/ATCC
  GI50: 1480 nM
Breast
  GI50: 1230 nM
  CC50: 15100 nM
  Log10 TGI (concentration in mol/L causing total growth inhibition (0% growth)): −5.47 mol/L
Leukemia
  GI50: 794 nM
  CC50: 97700 nM
  Log10 TGI (concentration in mol/L causing total growth inhibition (0% growth)): −5.19 mol/L
Ovarian
  GI50: 2090 nM
  CC50: 15100 nM
  Log10 TGI (concentration in mol/L causing total growth inhibition (0% growth)): −5.29 mol/L
SK-MEL-28
  GI50: 1780 nM
MCF7
  GI50: 820 nM
TK-10
  GI50: 1330 nM
786-0
  GI50: 1400 nM
MOLT-4
  GI50: 2110 nM
NCI-H23
  GI50: 2150 nM
NCI-H226
  GI50: 1690 nM
UACC-257
  GI50: 1490 nM
T-47D
  GI50: 1630 nM
SNB-75
  GI50: 1230 nM
CAKI-1
  GI50: 2200 nM
HS 578T
  GI50: 2570 nM
PC-3
  GI50: 1360 nM
SK-MEL-5
  GI50: 1650 nM
HCT-15
  GI50: 1270 nM
A498
  GI50: 1480 nM
MDA-MB-435
  GI50: 750 nM
SF-268
  GI50: 1820 nM
OVCAR-3
  GI50: 1680 nM
HCC-2998
  GI50: 2130 nM
COLO-205
  GI50: 1740 nM
SW-620
  GI50: 1370 nM
NCI-H460
  GI50: 1410 nM
RXF 393
  GI50: 1350 nM
NCI-H522
  GI50: 180 nM
Renal
  GI50: 1510 nM
  CC50: 6610 nM
  Log10 TGI (concentration in mol/L causing total growth inhibition (0% growth)): −5.51 mol/L
